Tests used:
SH-SY5Y neuronal cells [1] = test: Annexin-V staining of apoptotic cells against MPP+ iodide damage; assay type: cell-based, human; conditions: MPP+ iodide 1 mM; for % Decrease in Apoptotic cells (wrt MPP + iodide): Annexin
Description: After 24 h of treatment, cells were exposed to damage (MPP+ iodide 1 mM) for 24 h. […] Untreated cells were included as control. Cells treated with Deprenyl served as positive control. After treatment, cells were harvested by trypsinization and processed for Annexin V assay as follows: Cell were gently harvested into pre-labeled sterile centrifuge tubes and centrifuged at 300×g for 5-7 min. After 24 h of treatment, cells were exposed to damage (MPP+ iodide 1 mM) for 24 h. Cells treated with MPP+ iodide alone were included as Control. Untreated cells were included as negative control. Cells treated with Deprenyl served as positive control. After treatment, cells were harvested by trypsinization and processed for Annexin V assay as follows: Cell were gently harvested into pre-labelled sterile centrifuge tubes and centrifuged at 300×g for 5-7 min. Supernatant were discarded and the pellet was resuspended in 200 μl of fresh culture medium. 100 μl of cell suspension was transferred into pre-labeled sterile centrifuge tubes. 100 μl of Annexin-V reagent was added to each tube and incubated for 30 min at RT in dark. Cells stained for Annexin-V were then transferred into 96-well plates and acquired on flow cytometer (Guava technologies). Percentage of Annexin-V positive cells was determined.
Percent inhibition in apoptotic cells=[(% Annexin positive cells in MPP+iodide alone)−(% Annexin positive cells in Recombinant Lectin having SEQ ID NO:1+MPP+iodide)/% Annexin positive cells in MPP+iodide alone]*100

SH-SY5Y neuronal cells [2] = test: Cytoprotective effect against MPP+ iodide induced damage, MTT assay; conditions: MPP+ iodide 1 mM
Description: The Human Neuronal SH-SY5Y Cells were counted using hemocytometer and plated in 96 well plate at a density of 25,000 cells/well and incubated at 37° C. for 24 h. After incubation, cells were treated with recombinant lectin protein having the sequence of SEQ ID NO: 1 at concentrations ranging from 0.001 μg/ml 50 μg/ml for 24 h. After 24 h of treatment, cells were exposed to neurotoxin (MPP+ iodide, 1 mM) for 24 h. Cells treated with MPP+ iodide alone were included as negative control. Untreated cells were included as control. […] After treatment, the cytoprotective effect of SEQ ID NO: 1 on cell viability was assessed by 3-(4,5-dimethythiazol-2-yl)-2,5-diphenyl tetrazolium bromide (MTT) assay: The plate was taken out and 20 μl of 5 mg/ml of MTT 3-(4,5-dimethythiazol-2-yl)-2,5-diphenyl tetrazolium bromide solution was added to all the wells. The SH-SY5Y cells were incubated for 3 h at 37° C. The supernatant was aspirated and 150 μl of DMSO was added to each well to dissolve formazan crystals. The absorbance of each well was read at 540 nm using Synergy HT micro plate reader. The protective effect of the SEQ ID NO: 1 on survival of SH-SY5Y cells against MPP+ iodide induced damage was determined as: The viability of cells was determined as:
Where, the percentage cytotoxicity corresponding to each treatment was calculated as follows:
[formula] • X=Absorbance of cells treated with MPP+ iodide/recombinant lectin having SEQ ID NO: 1+MPP+Iodide • R=Absorbance of Control cells (Untreated) • Percentage protection was calculated as:
[(Absorbance of SEQ ID NO:1+MPP+Iodide)−(Absorbance of MPP+Iodide)/(Absorbance of Untreated)−(Absorbance of MPP+Iodide alone)]*100

SH-SY5Y neuronal cells [3] = test: Sub (G0/G1) cell population by PI cell cycle assay against MPP+ iodide damage; assay type: cell-based, human; conditions: MPP + Iodide (2 mM); for % Decrease in Apoptotic cells (wrt MPP + iodide): SubG0/G1
Description: After incubation as in Example 2a and 2b, cells were harvested by trypsinization and processed for Cell cycle assay as follows: Cell cycle reagent contains PI stain, which stains DNA of cells in different phases of cell cycle; Sub (G0/G1), G1, S, G2 and M. Cells in Sub (G0/G1) phase correspond to apoptotic cells.
Cells were gently harvested into pre-labelled centrifuge tubes and centrifuged at 450 g for 5 min, RT (low brake). The supernatants were removed carefully and discarded. 1 ml of 1×PBS was added to the pellet and resuspended gently to make homogenous suspension. Cells were centrifuged at 450 g for 5 min, RT (low brake). The supernatant was carefully removed leaving behind approximately 100 μl of PBS. Cells were resuspended gently yet thoroughly in residual PBS. The cells were fixed by adding Ice-cold 70% ethanol (100 μl) added dropwise into cells in each tube while vortexing at low speed Cells were stored at 4° C. for 24 h prior to staining.
Ethanol fixed cells were centrifuged at 450 g for 5 min, RT (low brake) the supernatant was carefully removed (not to touch the pellet) and discarded. 1 ml of 1×PBS was added into pellet and resuspended gently. Cells were incubated for 1 minute at RT. Cells were centrifuged at 450 g for 5 min, RT (low brake). (washing step) The supernatant was removed carefully leaving behind approx. 20 μl-50 μl of PBS. 200 μl of Cell Cycle reagent was added into each tube. Cells were resuspended gently and mixed. Cells were incubated for 30 min, RT, Dark. The stained samples were transferred into 96-well plates and acquired on flow cytometer (Guava technologies). Percentage of cells in Sub (G0/G1) phase were determined.
Percent inhibition in apoptotic cells=[(% Sub(G0/G1)cells in MPP+iodide alone) −(% Sub(G0/G1)cells in SEQ ID NO:1+MPP+iodide)/% Sub(G0/G1)cells in MPP+iodide alone]*100

## C#CCN(C)[C@H](C)Cc1ccccc1 [Deprenyl, reference compound]
SH-SY5Y neuronal cells [1]; 10 μM
  % Apoptotic cells (Anenxin + ve): 3%
  % Decrease in Apoptotic cells (wrt MPP + iodide): 27.2%
SH-SY5Y neuronal cells [1]; 25 μM
  % Apoptotic cells (Anenxin + ve): 2.5%
  % Decrease in Apoptotic cells (wrt MPP + iodide): 38.3%
SH-SY5Y neuronal cells [1]; 100 μM
  % Apoptotic cells (Anenxin + ve): 2.9%
  % Decrease in Apoptotic cells (wrt MPP + iodide): 28.4%
SH-SY5Y neuronal cells [2]; 1 μM
  Percentage Protection: 41.5%
SH-SY5Y neuronal cells [2]; 10 μM
  Percentage Protection: 49%
SH-SY5Y neuronal cells [2]; 25 μM
  Percentage Protection: 75.6%
SH-SY5Y neuronal cells [2]; 50 μM
  Percentage Protection: 74.7%
SH-SY5Y neuronal cells [2]; 100 μM
  Percentage Protection: 67.5%
SH-SY5Y neuronal cells [3]; 10 μM
  % Apoptotic cells (SubG0/G1): 2.9%
  % Decrease in Apoptotic cells (wrt MPP + iodide): 12.8%
SH-SY5Y neuronal cells [3]; 25 μM
  % Apoptotic cells (SubG0/G1): 2.4%
  % Decrease in Apoptotic cells (wrt MPP + iodide): 28.3%
SH-SY5Y neuronal cells [3]; 100 μM
  % Apoptotic cells (SubG0/G1): 2%
  % Decrease in Apoptotic cells (wrt MPP + iodide): 42%

Reference: patent US20240398899A1 (priority 2021, published 2024)
